Key:
[1] = tested on: primary microglia from wild-type mice; assay: Effect of REV-ERBα agonist on LPS-induced IL-6 mRNA (qRT-PCR), wild-type microglia; assay type: cell-based, mouse; conditions: for IL-6 mRNA expression level: WT microglia
Method: (§1) The efficacy of SR9009 was evaluated by analyzing IL-6 at protein and mRNA expression levels according to post-LPS treatment time (2, 6, 12, and 24 hours) in the same ELISA and qRT-PCR as in Example 5.

[2] = tested on: primary microglia from Psen2 mutation mouse model of Alzheimer's disease; assay: Effect of REV-ERBα agonist on LPS-induced IL-6 mRNA (qRT-PCR), Psen2 mutation microglia; assay type: cell-based; conditions: for IL-6 mRNA expression level: KI/+ microglia
Method: as §1

[3] = tested on: primary microglia from wild-type mice; assay: Effect of REV-ERBα agonist on LPS-induced IL-6 secretion (ELISA), wild-type microglia; assay type: cell-based, mouse; conditions: for IL-6 secreted: WT microglia
Method: as §1

[4] = tested on: primary microglia from Psen2 mutation mouse model of Alzheimer's disease; assay: Effect of REV-ERBα agonist on LPS-induced IL-6 secretion (ELISA), Psen2 mutation microglia; assay type: cell-based; conditions: for IL-6 secreted: KI/+ microglia
Method: as §1

[5] = wild-type microglia, group 32 vs 31, 2, 6, 12 and 24 hours
[6] = 10 NM SR9009, LPS 1 μg/mL 2 h (Group 34)
[7] = 10 NM SR9009, LPS 1 μg/mL 6 h (Group 34)
[8] = 10 NM SR9009, LPS 1 μg/mL 12 h (Group 34)
[9] = 10 NM SR9009, LPS 1 μg/mL 24 h (Group 34)

For `CCOC(=O)N1CCC(CN(Cc2ccc(Cl)cc2)Cc2ccc([N+](=O)[O-])s2)C1` (centres unmarked) [SR9009], the “IL-6 mRNA expression level” value ([1]; SR9009, LPS 1 μg/mL 2 h (Group 32)) was 0.456 fold, the “IL-6 mRNA expression level” value ([1]; SR9009, LPS 1 μg/mL 6 h (Group 32)) was 1.098 fold and the “IL-6 mRNA expression level” value ([1]; SR9009, LPS 1 μg/mL 12 h (Group 32)) was 1.129 fold. The “IL-6 mRNA expression level” value ([1]; SR9009, LPS 1 μg/mL 24 h (Group 32)) was 2.150 fold, the “mRNA expression of IL-6 (in words)” value [1, 5] was “repressed the mRNA expression of IL-6” and the “IL-6 mRNA expression level” value [2, 6] was 1.134 fold. The “IL-6 mRNA expression level” value [2, 7] was 7.810 fold, the “IL-6 mRNA expression level” value [2, 8] was 8.512 fold and the “IL-6 mRNA expression level” value [2, 9] was 11.141 fold. The “mRNA expression of IL-6 (in words)” value ([2]; Psen2 mutant microglia, group 34 vs 33) was “cannot repress”, the IL-6 secreted ([3]; 10 NM SR9009, LPS 1 μg/mL 2 h (Group 32)) was 24.467 pg/mL and the IL-6 secreted ([3]; 10 NM SR9009, LPS 1 μg/mL 6 h (Group 32)) was 85.630 pg/mL. The IL-6 secreted ([3]; 10 NM SR9009, LPS 1 μg/mL 12 h (Group 32)) was 361.583 pg/mL, the IL-6 secreted ([3]; 10 NM SR9009, LPS 1 μg/mL 24 h (Group 32)) was 555.053 pg/mL and the “production of IL-6 (in words)” value [3, 5] was “repressed the production of IL-6”. For the same compound, the IL-6 secreted [4, 6] was 38.229 pg/mL, the IL-6 secreted [4, 7] was 332.114 pg/mL and the IL-6 secreted [4, 8] was 1146.560 pg/mL. The IL-6 secreted [4, 9] was 1657.510 pg/mL and the “production of IL-6 (in words)” value ([4]; Psen2 mutation microglia, SR9009-treated group vs group 33) was “cannot repress”.

Reference: patent US20230149419A1, “COMPOSITION FOR PREVENTING OR TREATING NEUROINFLAMMATORY DISEASES, COMPRISING CHLORPROMAZINE” (GliaCellTech Inc., priority 2020, published 2023)
